“Also recorded” adds a separate entry of the source. Like-named read-outs stand apart in the source and are kept apart here.
Experiments:
[1] = test system: RLMs (rat liver microsomes); test: Inhibition of tofacitinib metabolism (M8 formation) in RLMs by furanocoumarins; type: in vitro ADME; conditions: for inhibitory effectiveness on RLMs (screening, M8 content): 100 μM furanocoumarin, 0.3 mg/mL RLMs; for IC50: substrate tofacitinib at about Km, 30 min, 37°C
Experimental: (§1) All except NADPH were mixed on ice.
(§2) Statistical analysis was conducted using Student's t-test.

[2] = test system: HLMs (human liver microsomes); test: Inhibition of tofacitinib metabolism (M8 formation) in HLMs; type: in vitro ADME; conditions: for Inhibition type / Ki: substrate tofacitinib; for IC50: substrate tofacitinib at about Km, 30 min, 37°C
Experimental: as §1, §2

[3] = molecular target: recombinant human CYP3A4 (rCYP3A4) (Homo sapiens, UniProt P08684); test: Inhibition of tofacitinib metabolism (M8 formation) by rCYP3A4
recombinant human CYP3A4 (rCYP3A4), sequence (P08684 whole entry): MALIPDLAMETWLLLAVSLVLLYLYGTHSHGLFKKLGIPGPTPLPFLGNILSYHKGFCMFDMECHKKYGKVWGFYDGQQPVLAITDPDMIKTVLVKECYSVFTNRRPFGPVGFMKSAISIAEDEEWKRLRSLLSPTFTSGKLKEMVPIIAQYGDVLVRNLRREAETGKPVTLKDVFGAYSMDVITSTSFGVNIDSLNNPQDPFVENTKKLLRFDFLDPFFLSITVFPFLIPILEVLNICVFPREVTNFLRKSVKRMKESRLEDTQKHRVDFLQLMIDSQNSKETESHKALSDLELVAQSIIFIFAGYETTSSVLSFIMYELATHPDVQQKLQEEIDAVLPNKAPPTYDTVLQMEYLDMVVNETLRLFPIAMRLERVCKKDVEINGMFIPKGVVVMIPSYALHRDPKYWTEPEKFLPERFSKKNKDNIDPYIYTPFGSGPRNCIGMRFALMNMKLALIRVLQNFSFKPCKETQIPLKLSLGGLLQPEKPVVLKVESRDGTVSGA
Experimental: as §1, §2

[4] = test system: RLMs (rat liver microsomes); test: Michaelis-Menten kinetics of tofacitinib metabolism (M8 formation) in RLMs; type: in vitro ADME; conditions: tofacitinib metabolism to M8, no inhibitor, n = 3
Experimental: as §1, §2

[5] = test system: HLMs (human liver microsomes); test: Michaelis-Menten kinetics of tofacitinib metabolism (M8 formation) in HLMs; type: in vitro ADME; conditions: tofacitinib metabolism to M8, no inhibitor, n = 3
Experimental: as §1, §2

in vivo = test: in vivo; set-up: species or system Sprague Dawley rats; conditions: male, Sprague-Dawley, rat, po, 10 mg/kg
Experimental: Male Sprague Dawley (SD) rats (average weighing 220–250) g were purchased from the laboratory animal center of Wenzhou Medical University, Zhejiang Province, China. Animals were maintained in a controlled environment with a 12 h light-dark cycle at 20°C–25°C and 55% ± 15% relative humidity. Diet intake was not allowed for a period of 12 h prior to the experiment. Then, water was allowed to be free and food was provided after the experiment. All the experimental procedures and protocols were reviewed and approved by the animal ethics committee of Wenzhou Medical University according to the guide for the care and use of laboratory animals (xmsq2021-0409). 36 male rats aged 8–10 weeks were randomly selected and divided into six groups for gavage. […] Blood (300 μL) was collected from the tail veins into 1.5 mL tubes at 5, 15, and 30 min and 1, 2, 3, 4, 6, 8, 12, and 24 h after administering the drugs. The supernatant was collected and stored at −20°C after centrifugation at 4000 rpm for 10 min. The samples were restored to RT before analysis. 50 μL sample was accurately drawn to 1.5 mL of EP tube, 150 μL of midazolam internal standard solution (200 ng/mL) was added to the tube, then placed and vortexed for 15 s. After centrifugation at 13, 000 rpm for 15 min, 150 µL of supernatant was prepared for the UPLC-MS/MS system to analyze.
as §2

With `O=c1ccc2ccc3occc3c2o1` [Isopsoralen] the “inhibitory effectiveness on RLMs (screening, M8 content)” value [1] was “potent inhibitory activity”, the Inhibition type ([1]; RLMs, substrate tofacitinib) was “competitive suppression; also recorded: Competitive inhibition” and the IC50 ([1]; RLMs) was 19.3 µM. For the same compound, the Inhibition type [2] was “competitive suppression; also recorded: Competitive inhibition”, the Ki [2] was 1.77 µM and the IC50 [2] was 12.3 µM. For the same compound, the “risk of DDI with tofacitinib (from Ki)” value [3] was “medium”, the IC50 ([3]; IC50, rCYP3A4, substrate tofacitinib at about Km, 30 min, 37°C) was 17.1 µM and the Ki ([3]; Ki, rCYP3A4, substrate tofacitinib) was 15.4 µM. For the same compound, the Inhibition type ([3]; rCYP3A4, substrate tofacitinib) was “competitive suppression; also recorded: Competitive inhibition”.
For `COc1c2ccoc2cc2oc(=O)ccc12` [Bergapten, 5-methoxy-psoralen], the “inhibitory effectiveness on RLMs (screening, M8 content)” value [1] was “potent inhibitory activity”, the Inhibition type ([1]; RLMs, substrate tofacitinib) was “Competitive inhibition” and the Ki ([1]; RLMs, substrate tofacitinib) was 0.443 µM. The IC50 ([1]; RLMs) was 2.62 µM, the Inhibition type ([1]; RLMs, substrate tofacitinib, listed as bergapten) was “competitively inhibited” and the Inhibition type [2] was “Competitive inhibition”. For the same compound, the Ki [2] was 0.189 µM, the IC50 [2] was 2.65 µM and the Inhibition type ([2]; listed as bergapten) was “competitively inhibited”. For the same compound, the IC50 [3] was 1.42 µM, the Ki [3] was 1.22 µM and the Inhibition type ([3]; rCYP3A4, substrate tofacitinib) was “Competitive inhibition”. For the same compound, the Inhibition type ([3]; rCYP3A4, substrate tofacitinib, listed as bergapten) was “competitively inhibited”.
`C[C@@H]1CCN(C(=O)CC#N)C[C@@H]1N(C)c1ncnc2[nH]ccc12` [tofacitinib, Tofacitinib] gave a Km [4] of 76.2 ± 4.51 µM, a Vmax [4] of 7.259 ± 0.1879 M8 area ratio and a Km [5] of 65.8 ± 4.75 µM. For the same compound, the Vmax [5] was 2.802 ± 0.0842 M8 area ratio, the Km ([1]; RLMs, bergapten 0 μM) was 65.5 µM and the Vmax ([1]; RLMs, bergapten 0 μM) was 8.021 M8 area ratio. It also gave a Km ([1]; RLMs, bergapten 0.5 μM) of 72.3 µM, a Vmax ([1]; RLMs, bergapten 0.5 μM) of 8.054 M8 area ratio and a Km ([1]; RLMs, bergapten 1 μM) of 88.6 µM. It also gave a Vmax ([1]; RLMs, bergapten 1 μM) of 8.111 M8 area ratio, a Km ([1]; RLMs, bergapten 2 μM) of 160 µM and a Vmax ([1]; RLMs, bergapten 2 μM) of 8.689 M8 area ratio. It also gave a Km ([1]; RLMs, bergapten 4 μM) of 411 µM, a Vmax ([1]; RLMs, bergapten 4 μM) of 9.555 M8 area ratio and a Km ([1]; RLMs, isopsoralen 0 μM) of 77.7 µM. The Vmax ([1]; RLMs, isopsoralen 0 μM) was 5.190 M8 area ratio, the Km ([1]; RLMs, isopsoralen 5 μM) was 114 µM and the Vmax ([1]; RLMs, isopsoralen 5 μM) was 5.555 M8 area ratio. For the same compound, the Km ([1]; RLMs, isopsoralen 10 μM) was 259 µM, the Vmax ([1]; RLMs, isopsoralen 10 μM) was 5.529 M8 area ratio and the Km ([1]; RLMs, isopsoralen 20 μM) was 538 µM. It also gave a Vmax ([1]; RLMs, isopsoralen 20 μM) of 4.503 M8 area ratio, a Km ([1]; RLMs, isopsoralen 40 μM) of 410 µM and a Vmax ([1]; RLMs, isopsoralen 40 μM) of 2.664 M8 area ratio. For the same compound, the Km ([2]; bergapten 0 μM) was 47.8 µM, the Vmax ([2]; bergapten 0 μM) was 2.973 M8 area ratio and the Km ([2]; bergapten 0.5 μM) was 53.1 µM. The Vmax ([2]; bergapten 0.5 μM) was 2.960 M8 area ratio, the Km ([2]; bergapten 1 μM) was 76.7 µM and the Vmax ([2]; bergapten 1 μM) was 3.018 M8 area ratio. It also gave a Km ([2]; bergapten 2 μM) of 190 µM, a Vmax ([2]; bergapten 2 μM) of 4.088 M8 area ratio and a Km ([2]; bergapten 4 μM) of roughly 5860 µM. The Vmax ([2]; bergapten 4 μM) was “∼43.85 M8 area ratio”, the Km ([2]; isopsoralen 0 μM) was 61.7 µM and the Vmax ([2]; isopsoralen 0 μM) was 1.886 M8 area ratio. It also gave a Km ([2]; isopsoralen 5 μM) of 71.1 µM, a Vmax ([2]; isopsoralen 5 μM) of 1.938 M8 area ratio and a Km ([2]; isopsoralen 10 μM) of 134 µM. The Vmax ([2]; isopsoralen 10 μM) was 1.718 M8 area ratio, the Km ([2]; isopsoralen 20 μM) was 432 µM and the Vmax ([2]; isopsoralen 20 μM) was 2.148 M8 area ratio. It also gave a Km ([2]; isopsoralen 40 μM) of 930 µM, a Vmax ([2]; isopsoralen 40 μM) of 2.589 M8 area ratio and a CLz/F (in vivo) of 144 ± 39.3 mL/min/kg. The t1/2z (in vivo) was 1.73 ± 0.44 h, the MRT last (in vivo; MRT(0-t)) was 2.1 ± 0.27 h and the MRT inf (in vivo; MRT(0-∞)) was 2.19 ± 0.28 h.

— PMC11033359 (Frontiers in Pharmacology, 2024)
